# Source: patent US10689622B2, “Culture medium for proliferating stem cell, which contains sulfated compound” (AJINOMOTO CO., INC., priority 2012, dated 2020)
# Experiments:
# bFGF [1] = molecular target: T1, bFGF (Homo sapiens, UniProt P09038); experiment: Evaluation of bFGF stabilization in Lonza serum-free medium (ELISA); type: biochemical
# T1 construct: purchased Lonza (via TAKARA BIO INC.) Ser. No. 00/190,632
# Description: A test compound was dissolved in phosphate buffered saline, and diluted 10-fold with a serum-free medium to adjust to the concentrations shown in Table 4 (test sample). The test sample was left standing in a tightly sealed Falcon tube at 37° C. for 7 days (Tables 5 to 8-2) or 3 days (Table 8-3), and the bFGF concentration was quantified by ELISA measurement. A phosphate buffered saline without a test compound was diluted 10-fold with a serum-free medium, and left standing at 37° C. or 4° C. for 7 days or 3 days, and used as a control.
# (§1) A commercially available measurement kit (human bFGF ELISA kit, ELH-bFGF-001, Ray Biotech) was used for quantification of bFGF in the medium. The measurement procedures followed the protocol attached to the kit. The bFGF concentration of the serum-free medium was calculated from the analytical curve (conversion formula) drawn from the absorbance of an analytical curve standard solution. The evaluation criteria of Tables 5-8 are as follows:
# A test compound was dissolved in phosphate buffered saline, and diluted 10-fold with a serum-free medium to adjust to the concentrations shown in Table 13 (test sample). The test sample was left standing in a tightly sealed Falcon tube at 37° C. for 7 days, and the bFGF concentration was quantified by ELISA measurement. A phosphate buffered saline without a test compound was diluted 10-fold with a serum-free medium, and left standing at 37° C. or 4° C. for 7 days, and used as a control.
# A commercially available measurement kit (human bFGF ELISA kit, ELH-bFGF-001, Ray Biotech) was used for quantification of bFGF in the medium. The measurement procedures followed the protocol attached to the kit. The bFGF concentration of the serum-free medium was calculated from the analytical curve (conversion formula) drawn from the absorbance of an analytical curve standard solution. The evaluation criteria of Table 13 are as follows: […]
# [2] = test system: Human bone marrow-derived mesenchymal stem cells; experiment: Mesenchymal stem cell proliferation system (cell number by DNA quantification); conditions: for number of cells relative to control: mesenchymal stem cells
# [3] = Measurement of content level of sulfur in test compound (ICP); type: physicochemical; conditions: for sulfur content Found (inorganic analysis): ICPS-8100, evaluation samples containing 0.01 wt % test compound
# Source text: The content level of sulfur in the sulfated saccharide is generally not less than 5 wt %, preferably not less than 10 wt %, more preferably not less than 15 wt %, and the upper limit is generally not more than 40 wt %, preferably not more than 35 wt %, more preferably not more than 30 wt %. […] Here, the content level of sulfur is a proportion in wt % of sulfur derived only from the sulfate group in sulfated saccharides, which can be measured by a method known in the field (e.g., rhodizonate method, elemental analysis or luminescent spectral analysis).
# The content level of sulfur in the sulfated polymer is generally not less than 5 wt %, preferably not less than 10 wt %, more preferably not less than 15 wt %, and the upper limit is generally not more than 40 wt %. […] Here, the content level of sulfur is a proportion in wt % of sulfur in the sulfated polymer, which can be measured by a method known in the field such as rhodizonate method, elemental analysis or luminescent spectral analysis).
# The relationship between the content level of sulfur in a test compound (sulfur content) and the cell proliferation promoting effect was examined. The sulfur content was measured using ICPS-8100 manufactured by SHIMADZU CORPORATION and analyzed using ICPS-8000 series Ver1.03. As the reference standard of sulfur, the standard for ICP-MS manufactured by Accu Standard was used. Sulfur reference standard solutions (0, 1, 10, 30, 50 ppm) were prepared, and the sulfur content of the evaluation samples containing 0.01 wt % test compound was measured by an analytical curve method.
# bFGF [4] = molecular target: T1, bFGF; experiment: Evaluation of bFGF stabilization in Essential 8 medium (ELISA); type: biochemical; conditions: 37° C. for 7 days
# Description: as §1
# A test compound was dissolved in phosphate buffered saline, and diluted 10-fold with a serum-free medium to adjust the concentration shown in Table 4 (test sample). The test sample was left standing in a tightly sealed Falcon tube at 37° C. for 7 days, and the bFGF concentration was quantified by ELISA measurement. A phosphate buffered saline without a test compound was diluted 10-fold with Essential 8 medium or ReproFF2 medium, and left standing at 37° C. or 4° C. for 7 days, and used as a control.
# A commercially available measurement kit (human bFGF ELISA kit, ELH-bFGF-001, Ray Biotech) was used for quantification of bFGF in the medium. The measurement procedures followed the protocol attached to the kit. The bFGF concentration of the serum-free medium was calculated from the analytical curve (conversion formula) drawn from the absorbance of an analytical curve standard solution. The evaluation criteria of Table 13 are as follows:
# A test compound was dissolved in phosphate buffered saline, and diluted 10-fold with a serum-free medium to adjust the concentration shown in Table 12 (test sample). The test sample was left standing in a tightly sealed Falcon tube at 37° C. for 7 days, and the bFGF concentration was quantified by ELISA measurement. A phosphate buffered saline without a test compound was diluted 10-fold with Essential 8 medium or ReproFF2 medium, and left standing at 37° C. or 4° C. for 7 days, and used as a control.
# [5] = Lonza serum-free medium, 37° C. for 7 days, test compound 25 ng/ml
# [6] = Lonza serum-free medium, 37° C. for 7 days, test compound 250 ng/ml
# [7] = Lonza serum-free medium, 37° C. for 7 days, test compound 25 μg/ml
# [8] = Lonza serum-free medium, 37° C. for 7 days, test compound 250 μg/ml
# [9] = effectiveness in ELISA evaluation of mesenchymal stem cells (medium), 4° C. control ratio
# T1 sequence (P09038 143-288): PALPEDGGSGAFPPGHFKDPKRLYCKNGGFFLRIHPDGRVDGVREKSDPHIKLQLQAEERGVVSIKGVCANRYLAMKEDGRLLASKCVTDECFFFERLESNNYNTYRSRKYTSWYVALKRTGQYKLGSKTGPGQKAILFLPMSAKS
Substance,bFGF concentration relative to that of 4° C. control (ELISA) (bFGF [1]; [5]),bFGF concentration relative to that of 4° C. control (ELISA) (bFGF [1]; [6]),bFGF concentration relative to that of 4° C. control (ELISA) (bFGF [1]; [7]),bFGF concentration relative to that of 4° C. control (ELISA) (bFGF [1]; [8]),effectiveness ELISA (bFGF [1]; [9]),sulfur content Found (inorganic analysis) [3],concentration showing a suppressive effect on a decrease in the bFGF concentration of the medium (bFGF [4]),bFGF concentration relative to that of 4° C. control (ELISA) (bFGF [4]; test compound 250 pg/ml),bFGF concentration relative to that of 4° C. control (ELISA) (bFGF [4]; test compound 25 ng/ml),bFGF concentration relative to that of 4° C. control (ELISA) (bFGF [4]; test compound 250 ng/ml),bFGF concentration relative to that of 4° C. control (ELISA) (bFGF [4]; test compound 25 μg/ml),bFGF concentration relative to that of 4° C. control (ELISA) (bFGF [4]; test compound 250 μg/ml),also measured
L-triserine SO3Na,x (bFGF concentration was less than 10% relative to that of 4 °C control),x (bFGF concentration was less than 10% relative to that of 4 °C control),− (bFGF concentration was not less than 10% and less than 30% relative to that of 4 °C control),++ (bFGF concentration was not less than 50% and less than 70% relative to that of 4 °C control),–,–,–,–,–,–,–,–,"concentration showing a suppressive effect on a decrease in the bFGF concentration of the medium (bFGF [1]; Lonza serum-free medium, 37° C. for 7 days): not less than 25 μg/ml; bFGF concentration relative to that of 4° C. control (ELISA) (bFGF [1]; Lonza serum-free medium, 37° C. for 7 days, test compound 250 pg/ml): x (bFGF concentration was less than 10% relative to that of 4 °C control); concentration at which a decrease in the protein amount of FGF is not suppressed (bFGF [1]; as shown in the Examples (methods of Examples I-1 and II-1)): not more than 2.5 μg/ml; effectiveness ELISA (bFGF [1]; summary grade of bFGF stabilization): ++ (bFGF concentration was not less than 50% and less than 70% relative to that of 4 °C control); effectiveness cells ([2]; summary grade of cell proliferation): ⊚ (not less than 120); number of cells relative to control ([2]; test compound 25 pg/ml): — (100-50); number of cells relative to control ([2]; test compound 250 pg/ml): ◯ (not less than 100); number of cells relative to control ([2]; test compound 25 ng/ml): — (100-50); number of cells relative to control ([2]; test compound 250 ng/ml): — (100-50); sulfer content Found (inorganic analysis) [3]: 18; bFGF concentration, 4° C. ctrl ratio (bFGF [4]; test compound 250 pg/ml): x (bFGF concentration was less than 10% relative to that of 4 °C control); bFGF concentration, 4° C. ctrl ratio (bFGF [4]; test compound 25 ng/ml): x (bFGF concentration was less than 10% relative to that of 4 °C control); bFGF concentration, 4° C. ctrl ratio (bFGF [4]; test compound 250 ng/ml): x (bFGF concentration was less than 10% relative to that of 4 °C control); bFGF concentration, 4° C. ctrl ratio (bFGF [4]; test compound 25 μg/ml): ++ (bFGF concentration was not less than 50% and less than 70% relative to that of 4 °C control); bFGF concentration, 4° C. ctrl ratio (bFGF [4]; test compound 250 μg/ml): +++ (bFGF concentration was not less than 70% relative to that of 4 °C control)"
stachyose SO3Na,x (bFGF concentration was less than 10% relative to that of 4 °C control),− (bFGF concentration was not less than 10% and less than 30% relative to that of 4 °C control),+++ (bFGF concentration was not less than 70% relative to that of 4 °C control),+++ (bFGF concentration was not less than 70% relative to that of 4 °C control),+++ (+++ 70%<),18 wt %,not less than 250 μg/ml,x (bFGF concentration was less than 10% relative to that of 4 °C control),x (bFGF concentration was less than 10% relative to that of 4 °C control),x (bFGF concentration was less than 10% relative to that of 4 °C control),x (bFGF concentration was less than 10% relative to that of 4 °C control),++ (bFGF concentration was not less than 50% and less than 70% relative to that of 4 °C control),–
glucose SO3Na,x (bFGF concentration was less than 10% relative to that of 4 °C control),x (bFGF concentration was less than 10% relative to that of 4 °C control),x (bFGF concentration was less than 10% relative to that of 4 °C control),− (bFGF concentration was not less than 10% and less than 30% relative to that of 4 °C control),+ (+ 30%<),23 wt %,not less than 2.5 mg/ml,x (bFGF concentration was less than 10% relative to that of 4 °C control),x (bFGF concentration was less than 10% relative to that of 4 °C control),x (bFGF concentration was less than 10% relative to that of 4 °C control),+++ (bFGF concentration was not less than 70% relative to that of 4 °C control),+++ (bFGF concentration was not less than 70% relative to that of 4 °C control),–
xylitol SO3Na,x (bFGF concentration was less than 10% relative to that of 4 °C control),x (bFGF concentration was less than 10% relative to that of 4 °C control),x (bFGF concentration was less than 10% relative to that of 4 °C control),++ (bFGF concentration was not less than 50% and less than 70% relative to that of 4 °C control),+++ (+++ 70%<),25 wt %,–,–,–,–,–,–,"effectiveness cells ([2]; growth of mesenchymal stem cell, control ratio): ◯ (◯ not leas than 100%)"
